According to patent publication US12162888B2, “Carboxamides as ubiquitin-specific protease inhibitors” (Valo Early Discovery, Inc., priority 2018, dated 2024):
pIC50: −log10 of the molar value.

The molecules below were run against T1, USP25 (USP25-His6, Boston Biochem E-546) (Homo sapiens, UniProt Q9UHP3) (assay: Ubiquitin-Rhodamine 110 Assay for USP25 Activity, Example A-3). Conditions: Ubiquitin-Rhodamine 110 assay, Example A-3; read-out: USP25 A-3 IC50 range.
T1 construct: His6 (C); purchased Boston Biochem E-546
T1 sequence (Q9UHP3 1-1055): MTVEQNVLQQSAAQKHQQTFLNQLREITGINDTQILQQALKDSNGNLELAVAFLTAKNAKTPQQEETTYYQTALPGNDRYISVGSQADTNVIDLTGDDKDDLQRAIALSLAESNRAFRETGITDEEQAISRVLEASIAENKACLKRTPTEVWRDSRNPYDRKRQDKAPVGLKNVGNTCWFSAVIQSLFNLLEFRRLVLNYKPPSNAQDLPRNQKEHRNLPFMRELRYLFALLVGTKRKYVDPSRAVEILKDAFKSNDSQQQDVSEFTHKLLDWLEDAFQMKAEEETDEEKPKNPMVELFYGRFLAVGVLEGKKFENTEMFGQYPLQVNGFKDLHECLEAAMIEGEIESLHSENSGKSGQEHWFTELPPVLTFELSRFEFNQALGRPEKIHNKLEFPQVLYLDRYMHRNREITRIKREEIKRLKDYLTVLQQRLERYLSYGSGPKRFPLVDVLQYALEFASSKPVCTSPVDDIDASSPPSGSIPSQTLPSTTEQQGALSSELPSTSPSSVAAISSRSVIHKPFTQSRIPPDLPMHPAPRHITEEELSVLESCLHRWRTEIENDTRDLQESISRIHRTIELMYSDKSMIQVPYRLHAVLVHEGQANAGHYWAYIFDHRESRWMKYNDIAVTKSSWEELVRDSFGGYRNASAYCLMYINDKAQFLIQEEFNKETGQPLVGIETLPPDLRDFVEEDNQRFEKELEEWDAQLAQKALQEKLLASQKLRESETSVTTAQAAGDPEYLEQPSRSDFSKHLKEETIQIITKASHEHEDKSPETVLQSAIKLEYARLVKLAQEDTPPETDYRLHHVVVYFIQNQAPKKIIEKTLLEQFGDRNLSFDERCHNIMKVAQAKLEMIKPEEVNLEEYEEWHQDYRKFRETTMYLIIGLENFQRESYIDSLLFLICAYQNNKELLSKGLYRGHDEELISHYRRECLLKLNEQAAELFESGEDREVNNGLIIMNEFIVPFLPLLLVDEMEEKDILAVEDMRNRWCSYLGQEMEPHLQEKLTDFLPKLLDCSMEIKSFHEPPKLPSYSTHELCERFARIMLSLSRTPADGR
Assay type: biochemical
Method in brief: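 USP25-His6 ([…] final as stated) preincubated 30 min with compound (10-point, 25 μM to 1.3 nM), then Ub-Rh110 at 25 nM (<<Km) added in pH 8.0 Tris buffer with BME, BGG and Triton X-100. Reaction stopped after 45 min at room temperature with 10 mM citric acid; fluorescence read at 485/535 nm.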

| Compound | pIC50 |
| --- | --- |
| CO[C@H]1CN(c2ccc3c(c2)OC[C@H](NC(=O)c2sc4nc(C)sc4c2N)C3)CC1N (stereo partly drawn) [Example 118, 6-amino-N-[(3R)-7-[(3,4S)-3-amino-4-methoxypyrrolidin-1-yl]-3,4-dihydro-2H-1-benzopyran-3-yl]-2-methylthieno[2,3-d][1,3]thiazole-5-carboxamide] | 5.70 to 6.70 |
| Cc1ccc2c(N)c(C(=O)N[C@H]3COc4cc(N5C[C@H](CF)[C@H](N)C5)ccc4C3)sc2n1 (single isomer, unassigned) [Example 424] | 5.70 to 6.70 |
| Cc1ccc2c(N)c(C(=O)N[C@H]3CCc4nc(N5C[C@H](N)[C@@]6(CCOC6)C5)ccc4C3)sc2n1 [Example 437, 3-amino-N-[(6S)-2-[(5R,9R)-9-amino-2-oxa-7-azaspiro[4.4]nonan-7-yl]-5,6,7,8-tetrahydroquinolin-6-yl]-6-methylthieno[2,3-b]pyridine-2-carboxamide] | < 5.70 |
| Cc1cnc2c(N)c(C(=O)N[C@H]3CCc4cc(N5C[C@H]6C[C@@H]5CN6)ccc4C3)sc2n1 (single isomer, unassigned) [Example 11-31] | 5.70 to 6.70 |
| Cc1nc2sc(C(=O)N[C@H]3CCc4c(C#N)c(N5CCNCC5)cc(F)c4C3)c(N)c2s1 (single isomer, unassigned) [Example 14-14] | 5.70 to 6.70 |
| Cc1ccc2c(N)c(C(=O)N[C@@H]3CCc4nc(N5C[C@@H](CF)[C@@H](N)C5)ncc4C3)sc2n1 [Example 445, 3-amino-N-[(6R)-2-[(3R,4R)-3-amino-4-(fluoromethyl)pyrrolidin-1-yl]-5,6,7,8-tetrahydroquinazolin-6-yl]-6-methylthieno[2,3-b]pyridine-2-carboxamide] | < 5.70 |
| Cc1ccc2c(N)c(C(=O)N[C@H]3COc4cc(N5CCNCC5)ccc4[C@H]3C)sc2n1 (single isomer, unassigned) [Example 11-15] | < 5.70 |
| Cc1cnc2c(N)c(C(=O)N[C@@H]3CCc4c(C#N)c(N5CC6CCC(C5)N6)cc(F)c4C3)sc2n1 (single isomer, unassigned) [Example 14-20] | < 5.70 |
| Cc1nc2sc(C(=O)N[C@H]3CCc4cc(N5CCNCC5)ccc4C3)c(N)c2s1 (single isomer, unassigned) [Example 11-33] | 5.70 to 6.70 |
| Cc1ccc2c(N)c(C(=O)N[C@H]3COc4cc(N5C[C@H]6CC[C@@H]5CN6)ncc4C3)sc2n1 [Example 76, N-((R)-7-((1R,4R)-2,5-diazabicyclo[2.2.2]octan-2-yl)-3,4-dihydro-2H-pyrano[3,2-c]pyridin-3-yl)-3-amino-6-methylthieno[2,3-b]pyridine-2-carboxamide] | 6.70 to 7.30 |
| CO[C@H]1CN(c2cc(F)c3c(c2C#N)CC[C@@H](NC(=O)c2sc4nc(C)ccc4c2N)C3)C[C@@H]1N (single isomer, unassigned) [Example 14-24] | < 5.70 |
| Cc1cnc2c(N)c(C(=O)N[C@H]3CCc4c(C#N)c(N5CC6CCC(C5)N6)cc(F)c4C3)sc2n1 (single isomer, unassigned) [Example 14-19] | 6.70 to 7.30 |
| Cc1ccc2c(N)c(C(=O)N[C@@H]3CCc4c(C#N)c(N5CCNCC5)cc(F)c4C3)sc2n1 (single isomer, unassigned) [Example 14-9] | < 5.70 |
| Cc1ccc2c(N)c(C(=O)N[C@@H]3CCc4c(C#N)c(N5CC6CCC(C5)N6)cc(F)c4C3)sc2n1 (single isomer, unassigned) [Example 14-18] | < 5.70 |
| Cc1ccc2c(N)c(C(=O)N[C@@H]3CCc4cc(N5CC6CNCC(C5)O6)cc(F)c4C3)sc2n1 (single isomer, unassigned) [Example 11-40] | 6.70 to 7.30 |
| CO[C@H]1CN(c2cc(F)c3c(c2C#N)CC[C@H](NC(=O)c2sc4nc(C)ccc4c2N)C3)C[C@@H]1N (single isomer, unassigned) [Example 14-23] | 5.70 to 6.70 |
| CN[C@H]1CCN(c2ccc3c(c2)CC[C@@H](NC(=O)c2sc4nc(C)cnc4c2N)C3)C1 (single isomer, unassigned) [Example 11-26] | < 5.70 |
| CN[C@@H]1CN(c2ccc3c(n2)CC[C@H](NC(=O)c2sc4nc(C)ccc4c2N)C3)C[C@@H]1CF [Example 442, 3-amino-N-[(6S)-2-[(3S,4S)-3-(fluoromethyl)-4-(methylamino)pyrrolidin-1-yl]-5,6,7,8-tetrahydroquinolin-6-yl]-6-methylthieno[2,3-b]pyridine-2-carboxamide] | < 5.70 |
| Cc1ccc2c(N)c(C(=O)N[C@@H]3COc4cc(N5CCNCC5)ccc4[C@@H]3C)sc2n1 (single isomer, unassigned) [Example 11-18] | 5.70 to 6.70 |
| CN[C@H]1CN(c2ccc3c(n2)CC[C@H](NC(=O)c2sc4nc(C)ccc4c2N)C3)C[C@H]1CF [Example 441, 3-amino-N-[(6S)-2-[(3R,4R)-3-(fluoromethyl)-4-(methylamino)pyrrolidin-1-yl]-5,6,7,8-tetrahydroquinolin-6-yl]-6-methylthieno[2,3-b]pyridine-2-carboxamide] | < 5.70 |
| CN[C@H]1CCN(c2ccc3c(c2)CC[C@H](NC(=O)c2sc4nc(C)cnc4c2N)C3)C1 (single isomer, unassigned) [Example 11-25] | 5.70 to 6.70 |
| Cc1nc2sc(C(=O)N[C@@H]3CCc4cc(N5CCNCC5)ccc4C3)c(N)c2s1 (single isomer, unassigned) [Example 11-34] | < 5.70 |
| Cc1cnc2c(N)c(C(=O)N[C@@H]3CCc4cc(N5C[C@@H]6C[C@H]5CN6)ccc4C3)sc2n1 (single isomer, unassigned) [Example 11-30] | 5.70 to 6.70 |

Same assay, conditions: biochemical IC50 range, Ubiquitin-Rhodamine 110 assay, Example A-3; read-out: USP25 A-3

| Compound | pIC50 |
| --- | --- |
| CN[C@@H]1CN(c2ccc3c(c2)OC[C@H](NC(=O)c2sc4nc(C)ccc4c2N)C3)C[C@H]1CF [Example 663, 3-amino-N-[(3R)-7-[(3R,4S)-3-(fluoromethyl)-4-(methylamino)pyrrolidin-1-yl]-3,4-dihydro-2H-1-benzopyran-3-yl]-6-methylthieno[2,3-b]pyridine-2-carboxamide] | 6.70 to 7.30 |
| Cc1ccc2c(N)c(C(=O)N[C@H]3COc4cc(N5C[C@H](N)[C@](C)(CF)C5)ccc4C3)sc2n1 [Example 658, 3-amino-N-[(3R)-7-[(3R,4R)-4-amino-3-(fluoromethyl)-3-methylpyrrolidin-1-yl]-3,4-dihydro-2H-1-benzopyran-3-yl]-6-methylthieno[2,3-b]pyridine-2-carboxamide] | 6.70 to 7.30 |
| Cc1ccc2c(N)c(C(=O)N[C@H]3COc4cc(N5C[C@@H]6CCNC[C@@H]65)cc(F)c4C3)sc2n1 [Example 665, 3-amino-N-[(3R)-7-[(1R,6S)-3,8-diazabicyclo[4.2.0]octan-8-yl]-5-fluoro-3,4-dihydro-2H-1-benzopyran-3-yl]-6-methylthieno[2,3-b]pyridine-2-carboxamide] | 6.70 to 7.30 |
| CO[C@H]1CN(c2ccc3c(c2)CC[C@H](NC(=O)c2sc4nc(C)ccc4c2N)C3)C[C@H]1N [Example 144, 3-amino-N-[(2S)-6-[(3R,4S)-3-amino-4-methoxypyrrolidin-1-yl]-1,2,3,4-tetrahydronaphthalen-2-yl]-6-methylthieno[2,3-b]pyridine-2-carboxamide] | 5.70 to 6.70 |
| COC1CN(c2ccc3c(c2)CC[C@H](NC(=O)c2sc4nc(C)cnc4c2N)C3)CC1N (stereo in doubt) [Example 130, 7-amino-N-[(2S)-6-[(3S,4S)-3-amino-4-methoxypyrrolidin-1-yl]-1,2,3,4-tetrahydronaphthalen-2-yl]-3-methylthieno[2,3-b]pyrazine-6-carboxamide] | 5.70 to 6.70 |
| Cc1ccc2c(N)c(C(=O)N[C@H]3COc4cc(N5C[C@@H](N)[C@@](C)(CF)C5)ccc4C3)sc2n1 [Example 660, 3-amino-N-[(3R)-7-[(3S,4S)-4-amino-3-(fluoromethyl)-3-methylpyrrolidin-1-yl]-3,4-dihydro-2H-1-benzopyran-3-yl]-6-methylthieno[2,3-b]pyridine-2-carboxamide] | 7.30 to 9.00 |
| O=C(N[C@H]1COc2cc(N3CCNCC3)ccc2C1)c1ccc(NCc2cccc(Cl)c2Cl)nc1 [Example 699, 6-{[(2,3-dichlorophenyl)methyl]amino}-N-[(3R)-7-(piperazin-1-yl)-3,4-dihydro-2H-1-benzopyran-3-yl]pyridine-3-carboxamide] | 7.30 to 9.00 |
